The values that follow come from patent publication US6383543B1, “Process for the extraction of an organic salt from plants, the salt, and other similar salts” (RAD Natural Technologies Ltd., priority 1998, dated 2002).

A short description of data set [1]: Antioxidant effect in oil in water emulsions containing soybean oil, TBA test at 50° C. Particulars: oil in water emulsion.
Procedure: (a) Oil in water emulsions were prepared from soybean oil (10%), Tween 80 (7%), Span 80 (3%), water (80%) and antioxidant (0.1 or 0.02%).
Data set [2] can be described thus: Antioxidant effect in water in oil emulsions from soybean oil, Rancimat (AOM) test at 100° C. Particulars: water in oil emulsion.
Data set [3] in a line: Antioxidant effect in bulk oil (soybean oil) at 60° C.
Source text: A concentrate was first prepared containing 40% lecithin, 40% oil (e.g. soybean oil), 20% propylene glycol and 4% based on the foregoing mixture of 65% (≡2.6% pure) sodium rosmarinate.
The conditions of data set [4]: yes/no; cited from earlier work.
The nature of another data set: Solubility. It is filed as physicochemical. Particulars: for Solubility: lipid or water; for solubility in acetone: b32: essentially 100% acetone.
The nature of data set [5]: Comparative efficiency: time the antioxidant continues to inhibit oxidation of linoleic acid. It is filed as biochemical. Particulars: time until antioxidant is consumed and rate of change of absorption at 234 nm reverts to control. The method, then:
The method is based on the rate of oxidation of linoleic acid (LA) to its conjugated diene hydroperoxide (Pryor et al., in J. Org. […] A 1% LA aq. emulsion was prepared with 1% Tween 20 and 0.05M sodium phosphate buffer (pH 7.4). A control sample contained 0.025 ml of the LA emulsion+2.87 ml. of the buffer+0.1 ml 0.05M ABAP; a test sample contained 0.05 ml of the LA emulsion+2.7-2.8 ml of the buffer+0.1 ml 0.05M ABAP+0.05-0.1 ml of the sample under test. Absorption at 234 nm is followed for 5 minutes to establish the uninhibited rate of autoxidation. […] The test antioxidant was added and the inhibited reaction was followed until the antioxidant was consumed and the rate of the absorption change at 234 nm reverted to that observed at the outset.

Data set [6] can be described thus: Antioxidant effect in emulsions containing β-carotene. Particulars: over a 100 hour time period; 0.1%. How it is done: A model emulsion was then prepared by adding double-distilled water (25 ml) to the residue and diluting to 500 ml with phosphate buffer (pH 7.0). […] […] A control sample contained no antioxidant but instead, 95% ethanol (2 ml).
The nature of data set [7]: Stabilization of ascorbic acid (50% ethanol, 60° C., 24 hours, HPLC). Particulars: 10 mg/ml ascorbic acid, after 60° C. The method, then:
The experiment was repeated with the addition of 0.035 mg or 0.07 mg sodium rosmarinate.

For the compound `COc1ccc(O)c(C(C)(C)C)c1` [BHA, butylated hydroxyanisole], the Days until oxidation in data set [1] (antioxidant 0.02%) turned out to be 2 days; in data set [3] (concentration 0.02%), 4 days. Also, in data set [2] (antioxidant 0.02%), the Hours until oxidation stood at 9.54 h.

Consider `Cc1cc(C(C)(C)C)c(O)c(C(C)(C)C)c1` [BHT, butylated hydroxytoluene], for which, in data set [4], the Toxicity entry was “yes”. Moreover, in the data set “Solubility”, the Solubility result is listed as “lipid”. Further, the “Efficiency of 10 μg” value in data set [5] worked out at 814 h.

As for `CCCOC(=O)c1cc(O)c(O)c(O)c1` [PG, propyl gallate], the Toxicity entry in data set [4] is “yes”. Besides, in “Solubility”, the Solubility result was “lipid”. In data set [5], the “Efficiency of 10 μg” value stood at 500 h.

For `CC(C)(C)c1cc(O)ccc1O` [TBHQ, tertiary-butylhydroxyquinone], in data set [4], the Toxicity result is “yes”. For the same compound, in “Solubility”, the Solubility entry is listed as “lipid”. Besides, the “Efficiency of 10 μg” value in data set [5] was 432 h.

Consider `Cc1c(C)c2c(c(C)c1O)CCC(C)(C(=O)O)O2` (stereo not drawn) [Trolox], for which the Toxicity entry in data set [4] is “no”. Moreover, the Solubility entry in the data set “Solubility” is listed as “water”. In addition, the “Efficiency of 10 μg” value in data set [5] was determined as 650 h.

For `O=C1O[C@H]([C@@H](O)CO)C(O)=C1O` [Vitamin C, ascorbic acid], the “protection of β-carotene” value in data set [6] is recorded as “little protection”. The Days until oxidation in data set [1] (antioxidant 0.1%) was determined as 1 days. Further, the Hours until oxidation in data set [2] (antioxidant 0.1%) worked out at 25.20 h.

With `O=C(/C=C/c1ccc(O)c(O)c1)OC(Cc1ccc(O)c(O)c1)C(=O)O` (stereo not drawn) [rosmarinic acid], the figures for the “% ascorbic acid” value in data set [7] (+0.035 mg additive) and in data set [7] (+0.07 mg additive) were 68% and 90%, respectively. For the same compound, in “Solubility”, the solubility in acetone entry is reported as “acetone-soluble”.

Turning to `O=C(/C=C/c1ccc(O)c(O)c1)O[C@H](Cc1ccc(O)c(O)c1)C(=O)O` [sodium rosmarinate], the Toxicity entry in data set [4] is on record as “no”. Also, in the data set “Solubility”, the solubility in acetone entry is “virtually acetone-insoluble” and the Solubility entry is “water”. In addition, the “Efficiency of 10 μg” value in data set [5] stood at 1413 h. In data set [3] (concentration 0.005% (as 0.2% of the concentrate)), the Days until oxidation stood at 7 days. Besides, the Days until oxidation in data set [3] (concentration 0.013% (as 0.5% of the concentrate)) came to 8 days.

For Vitamin E, in data set [4], the Toxicity entry was “no”. Also, in the data set “Solubility”, the Solubility entry is reported as “lipid”. In addition, the Days until oxidation is 1 days in data set [1] (antioxidant 0.1%) and 4 days in data set [3] (concentration 0.06%). In data set [2] (antioxidant 0.1%), this compound gave a Hours until oxidation of 9.58 h. In data set [5], the “Efficiency of 10 μg” value turned out to be 444 h.
